Measured values as given in patent publication US9505800B2, “Extended triterpene derivatives” (Myrexis, Inc., priority 2006, dated 2016).

Key:
HIV-1IIIB virus = assay: Determination of a compound's EC50 on MT-2 cell line (HIV-1IIIB infection, XTT/PMS viability read-out); type: cell-based; settings: Table 1; for TI: TI = CC50:EC50 ratio
Protocol: Drug Preparation—The EC50 value for each compound is determined prior to determining the combination index. Each compound is tested in replicates of three, starting at a final concentration of 1 ug/mL. Compounds are dissolved in DMSO at a stock concentration of 10 mg/mL. Test compounds are serially diluted (4-fold dilutions) in a 96-flat-bottom-well plate. The initial working concentration of compound is 4× the desired final concentration. The final volume of drug per well is 45 uL. Included as controls are at least four wells containing cells only and four containing cells and virus in the absence of drug.
Virus Preparation—The HIV-1IIIB virus generated in the H9 cell line is diluted in culture media. The virus is used at a dilution that will cause 50%-75% cell death in day five post-infection as determined by XTT/PMS vital dye. Virus (45 uL) is added to all wells containing drug as well as the control wells.
Cell Preparation—MT-2 cells are added to each well at a volume of 90 uL per well at a cell concentration of 3.3×10^5 cells per mL. MT-2 cells are human T-cell leukemia cells isolated from cord blood lymphocytes and co-cultured with cells from patients with adult T-cell leukemia. […]
Assay—Culture plates are placed in a 37° C., 5% CO2, humidified incubator. […] XTT, (2,3-Bis(2-methoxy-4-nitro-5-sulfophenyl)-2H-tetrazolium-5-carboxanilide) is a yellow tetrazolium salt that, in the presence of dehydrogenase enzymes of metabolically active cells, is reduced to yield a soluble orange formazan dye, which can be measured by absorbance at 490 (or 450) nm in a microplate reader. […] For each plate to be analyzed, 5 mL of XTT/PMS is needed. […] Plates are placed uncovered into a 5% CO2, 37° C. incubator and read on plate reader at a wavelength of 450 nm after four hour incubation.
Data Compilation—The percent inhibition at a given concentration is determined by using the following formula: (average OD-virus control)/(cell control—virus control). The EC50 for each compound is calculated from the linear regression of percent inhibition.

in vitro = settings: human
[1] = CC50 (cytotoxicity) reported beside the EC50 values; method not described; settings: human, MT-2 cells

SMILES	EC50 (HIV-1IIIB virus; Human immunodeficiency virus 1, MT2, 120 h, extended compound vs non-extended analog, MT-2 cells, HIV-1IIIB, day 5 post infection, XTT/PMS)	TI (HIV-1IIIB virus)	CC50 (in vitro)	CC50 [1]
C=C(C)[C@@H]1CC[C@]2(CCN3CCOCC3)CC[C@]3(C)[C@H](CC[C@@H]4[C@@]5(C)CC[C@H](OC(=O)CC(C)(C)CC(=O)O)C(C)(C)[C@@H]5CC[C@]43C)[C@@H]12	0.0221 µM	3387	74.8 µM	
C=C(C)[C@@H]1CC[C@]2(CN3CCOCC3)CC[C@]3(C)[C@H](CC[C@@H]4[C@@]5(C)CC[C@H](OC(=O)CC(C)(C)CC(=O)O)C(C)(C)[C@@H]5CC[C@]43C)[C@@H]12		135		10.4 µM
